Experimental data: publication PMC7316994, “In Vitro Pharmacological Profile of a New Small Molecule Bradykinin B2 Receptor Antagonist” (Frontiers in Pharmacology, 2020)
Where two headings read alike, the source gives them in different places. Peptide text beside a SMILES is read from it.

Experiments:
[1] = molecular target: T1, endogenous human B2 receptor (Homo sapiens, UniProt P30411); test: human isolated umbilical vein contractility assay, BK-induced contraction; settings: for type of antagonism of BK: BK concentration-effect curves, Emax; for pA2 / Kb: Schild plot; for pA2 / Kb / Schild plot slope: Pharm/PCS, ± S.E.M. where given; for Kb: read-out: pA2 (converted); for Schild plot slope: Schild regression; for Maximal BK-induced response in absolute force units ± S.E.M.: vehicle: Icatibant 1.90, Compound 1 […]; for pA2 value converted into nM: potency from pA2
T1 construct: BK-induced contraction at endogenous human B2 receptor in the umbilical vein model; from tissue; host or cells: human umbilical vein rings (donor cords after elective caesarean section)
T1 sequence (P30411 1-391): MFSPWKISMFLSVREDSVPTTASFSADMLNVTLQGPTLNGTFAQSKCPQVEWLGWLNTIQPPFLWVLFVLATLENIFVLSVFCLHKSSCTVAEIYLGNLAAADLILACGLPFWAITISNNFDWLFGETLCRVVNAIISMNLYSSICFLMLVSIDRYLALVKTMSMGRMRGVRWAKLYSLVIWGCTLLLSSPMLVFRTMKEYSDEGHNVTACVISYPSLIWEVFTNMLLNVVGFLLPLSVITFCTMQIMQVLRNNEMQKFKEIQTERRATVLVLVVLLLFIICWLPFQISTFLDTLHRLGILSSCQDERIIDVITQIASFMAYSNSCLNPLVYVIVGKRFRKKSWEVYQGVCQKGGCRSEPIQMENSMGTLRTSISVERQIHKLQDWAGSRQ

microsomal stability = settings: for microsomal CLint at 1 µM: male, Wistar, rat, liver microsomes, pH 7.4
B2 receptor [2] = molecular target: T2, B2 receptor (Homo sapiens, UniProt P30411); test: [^3H]BK competition binding assay, CHO cell membranes; set-up: host or cells: CHO cells; settings: for IC50 / Ki: competition with 0.3 nM [^3H]BK; for fold lower affinity compared to Compound 3 and icatibant: radioligand binding
T2 sequence (P30411 1-391): T1 sequence (P30411 1-391)

B2 receptor [3] = molecular target: T2, B2 receptor; test: Ca^2+ mobilization assay, transfected CHO cells; assay type: cell-based; set-up: host or cells: CHO cells; settings: for IC50 / Kb: inhibition of response to 0.03 nM BK
[4] = Caco-2 permeation assay (bidirectional); settings: human
[5] = molecular target: T3, cynomolgus monkey B2 receptor (Macaca fascicularis, UniProt A0A7N9CWN6); test: cell-based
T3 sequence (A0A7N9CWN6 1-391): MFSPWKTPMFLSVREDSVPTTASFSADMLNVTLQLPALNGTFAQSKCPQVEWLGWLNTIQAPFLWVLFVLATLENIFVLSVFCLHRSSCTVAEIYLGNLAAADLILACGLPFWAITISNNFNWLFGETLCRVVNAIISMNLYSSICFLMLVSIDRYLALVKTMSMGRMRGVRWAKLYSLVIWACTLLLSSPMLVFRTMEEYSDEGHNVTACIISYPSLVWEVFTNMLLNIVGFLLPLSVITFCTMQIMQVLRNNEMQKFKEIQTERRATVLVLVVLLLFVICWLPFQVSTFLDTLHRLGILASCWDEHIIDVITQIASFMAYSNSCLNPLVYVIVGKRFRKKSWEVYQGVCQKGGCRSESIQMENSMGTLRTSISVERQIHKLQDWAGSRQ

5-HT2A receptor = molecular target: T4, 5-HT2A receptor (Homo sapiens, UniProt P28223); test: umbilical vein, serotonin-induced contraction; settings: Compound 2 10 μM; Compound 3 1 μM
T4 construct: other endogenously expressed receptors in the human umbilical vein; from tissue; host or cells: human umbilical vein rings
Text: (§1) The local ethics committee (CHU de Québec-Université Laval) had approved the project (File no. 2017-3720). Umbilical cords were obtained following elective caesarean sections; all problematic deliveries are excluded. Informed consent was obtained from the mothers. The cords were transported from the maternity ward to the laboratory in sterile Hank's balanced salt solution containing penicillin and streptomycin. Segments of umbilical veins were dissected carefully from the cords and a metal rod was inserted in the lumen. Excess connective tissue was excised and rings (2–3 mm wide) were cut. Rings of umbilical veins were suspended in 5-mL organ chambers containing oxygenated (95% O2, 5% CO2) and warmed (37°C) Krebs' solution between a metal hook and a thread loop. This solution had the following composition: NaCl 117.5 mM, KCl 4.7 mM, KH2PO4 1.2 mM, MgSO4 1.18 mM, CaCI2 2.5 mM, NaHCO3 25.0 mM, and D-glucose 5.5 mM. A baseline of one gram-weight was applied to these preparations. Changes of tension were recorded by using isometric transducers (model 52-9545, Harvard Bioscience, South Natick MA). Eight tissue baths are operated in parallel.
(§2) For this purpose, contractile responses to serotonin, acting on the 5-HT2A receptor, and U-46619, acting at the prostanoid TP receptor, were measured ([Rogines-Velo et al., 2002]; [Daray et al., 2003]).

prostanoid TP receptor = molecular target: T5, prostanoid TP receptor (Homo sapiens, UniProt P21731); test: umbilical vein, U-46619-induced contraction; settings: Compound 2 10 μM; Compound 3 1 μM
T5 construct: endogenous human prostanoid TP receptors in the umbilical vein model; from tissue; host or cells: human umbilical vein rings
Text: as §1, §2

human myc-B2 receptor = molecular target: T6, human myc-B2 receptor (Homo sapiens, UniProt P30411); test: c-Fos immunoblot, HEK 293a cells stably expressing myc-B2 receptor; assay type: cell-based; settings: BK 10 nM
T6 construct: expressed in transfected cells
T6 sequence (P30411 1-391): T1 sequence (P30411 1-391)
Text: Supplementary Methods: Immunoblots for c-Fos signaling
The construction of myc-tagged B2 receptor expression vector containing the human receptor sequence has been recently reported, as well as the derivation of HEK293a cell lines that stably express the construction (Charest-Morin et al., 2015). Immunoblotting experiments, conducted as described (Koumbadinga et al., 2010), were used to study the effect of selected antagonists on BK-induced signaling. Briefly, HEK 293a cells stably expressing the human myc-B2 receptor were stimulated with BK agonists for 60 min at 37°C, with or without a pretreatment with the antagonist (applied 15 min before BK). Total cell extracts were immunoblotted to detect c-Fos expression using the K-25 rabbit polyclonal antibodies (Santa Cruz Biotechnology, Dallas, TX; dilution 1:50,000). In these experiments, β-actin was used as a loading control and was detected using the monoclonal anti-β-actin antibody, clone AC-15 (Sigma-Aldrich; dilution 1:50,000).

[6] = molecular target: T7, myc-tagged human B2 receptor (Homo sapiens, UniProt P30411); test: antibody internalization assay, HEK 293a cells; assay type: cell-based; settings: BK 100 nM; antagonist 1 nM to 1 μM, 15 min before BK
T7 construct: expressed in transfected cells
Experimental: B2 receptor-mediated transport of immune complexes constructed at the cell surface was previously reported ([Bawolak et al., 2011]). Intact HEK 293a cells stably expressing the N-terminally myc-tagged B2 receptor construction (human sequence, [Charest-Morin et al., 2015]) were treated with the monoclonal anti-myc antibody (clone 4A6) conjugated with AlexaFluor-488 (Millipore, dilution 1:500) added to the culture medium. Cells were further incubated at 37°C. Without rinsing, a selected antagonist or their DMSO vehicle was added 5 min later, and BK (100 nM) or its saline vehicle 15 min later. After an additional 30 min incubation period at 37°C, cells were rinsed 3 times with Hank's balanced salt solution (Multicell Wisent, St. Bruno, Canada) and photographed in transmission and epifluorescence using an Olympus BX51 microscope coupled to a CoolSnap HQ digital camera (filters for AlexaFluor 488: excitation 460–500 nm, emission 510–560 nm).

[7] = molecular target: T3, cynomolgus monkey B2 receptor; settings: mean ± S.D.
[8] = antagonist 10 nM, Compound 2 2.25, Compound 3 1.52
[9] = antagonist 100 nM, Compound 2 2.25, Compound 3 1.52
[10] = antagonist 1 μM, Compound 2 2.25, Compound 3 1.52
[11] = antagonist 10 μM, Compound 2 2.25
[12] = arithmetic mean, read-out: IC50 (nM) Mean
[13] = arithmetic mean, read-out: Ki (nM) Mean
[14] = geometric mean, read-out: IC50 (nM) Geometric mean
[15] = geometric mean, read-out: Ki (nM) Geometric mean
[16] = arithmetic mean, read-out: Kb (nM) Mean
[17] = geometric mean, read-out: Kb (nM) Geometric mean

T5 sequence (P21731 whole entry): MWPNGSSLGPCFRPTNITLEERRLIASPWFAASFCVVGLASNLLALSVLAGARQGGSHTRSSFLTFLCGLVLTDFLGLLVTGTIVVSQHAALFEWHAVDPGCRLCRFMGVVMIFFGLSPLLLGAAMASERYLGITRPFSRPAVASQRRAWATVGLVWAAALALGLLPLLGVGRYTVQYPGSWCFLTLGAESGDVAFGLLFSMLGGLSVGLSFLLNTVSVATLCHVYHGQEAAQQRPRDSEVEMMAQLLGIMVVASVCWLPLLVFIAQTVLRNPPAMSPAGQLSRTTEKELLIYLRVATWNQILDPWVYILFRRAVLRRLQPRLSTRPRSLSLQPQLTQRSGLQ
T4 sequence (P28223 whole entry): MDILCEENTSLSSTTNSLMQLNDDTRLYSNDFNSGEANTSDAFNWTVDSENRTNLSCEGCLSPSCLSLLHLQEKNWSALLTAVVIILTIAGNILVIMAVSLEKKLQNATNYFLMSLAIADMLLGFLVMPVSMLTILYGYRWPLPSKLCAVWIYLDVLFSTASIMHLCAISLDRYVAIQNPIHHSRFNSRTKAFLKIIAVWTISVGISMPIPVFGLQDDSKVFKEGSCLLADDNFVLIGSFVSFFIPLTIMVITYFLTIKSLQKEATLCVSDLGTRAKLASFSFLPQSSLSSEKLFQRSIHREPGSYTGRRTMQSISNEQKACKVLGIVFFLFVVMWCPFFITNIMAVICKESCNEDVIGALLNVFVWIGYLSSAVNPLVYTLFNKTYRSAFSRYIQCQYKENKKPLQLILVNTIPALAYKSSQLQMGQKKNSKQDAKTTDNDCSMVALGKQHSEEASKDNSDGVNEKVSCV

Row | type of antagonism of BK [1] | pA2 [1] | Kb [1] [nM] | Schild plot slope [1] | Maximal BK-induced response in absolute force units ± S.E.M. [1, 8] [grams-weight] | Maximal BK-induced response in absolute force units ± S.E.M. [1, 9] [grams-weight] | Maximal BK-induced response in absolute force units ± S.E.M. [1, 10] [grams-weight] | Maximal BK-induced response in absolute force units ± S.E.M. [1, 11] [grams-weight] | pA2 value converted into nM [1] [nM] | microsomal CLint at 1 µM (microsomal stability) [µL/min/mg] | IC50 (B2 receptor [2]; [12]) [nM] | Ki (B2 receptor [2]; [13]) [nM] | IC50 (B2 receptor [2]; [14]) [nM] | Ki (B2 receptor [2]; [15]) [nM] | fold lower affinity compared to Compound 3 and icatibant (B2 receptor [2]) | IC50 (B2 receptor [3]; [12]) [nM] | Kb (B2 receptor [3]; [16]) [nM] | IC50 (B2 receptor [3]; [14]) [nM] | Kb (B2 receptor [3]; [17]) [nM] | Papp A→B at 60 min, 10 µM [4] [×10⁻⁶ cm/s] | SMILES | also measured
1 | competitive | 8.58 ± 0.26 | 2.63 | −0.62 | 1.48 ± 0.24 | 2.08 ± 0.28 | 1.46 ± 0.20 | 1.67 ± 0.28 | 2.63 | 960 | 7.4 | 3.8 | 7.4 | 3.8 | about 7 fold | 11.3 | 1.3 | 11 | 1.24 | 5.5 | Cc1cc(-c2ncnn2C)c2cccc(OCc3c(Cl)cncc3CNC(=O)C3CCCCC3)c2n1 [Compound 1, N-((5-chloro-4-((2-methyl-4-(1-methyl-1H-1,2,4-triazol-5-yl)quinolin-8-yloxy)methyl)pyridin-3-yl)methyl)cyclohexanecarboxamide] | Papp B→A at 60 min, 10 µM [4]: 20.9 ×10⁻⁶ cm/s; efflux ratio at 60 min, 10 µM [4]: 5.5
2 | – | – | – | – | – | – | – | – | – | – | – | – | – | – | – | – | – | – | – | – | NC(N)=NCCC[C@H](NC(=O)[C@H](Cc1ccccc1)NC(=O)[C@@H]1CCCN1C(=O)[C@H](CO)NC(=O)[C@H](Cc1ccccc1)NC(=O)CNC(=O)[C@@H]1CCCN1C(=O)[C@@H]1CCCN1C(=O)[C@@H](N)CCCN=C(N)N)C(=O)O [BK] (H-RPPGFSPFR-OH) | EC50 [5]: 0.155 ± 0.043 nM
3 | competitive | 9.02 ± 0.31 | 0.955 | −0.65 | 2.07 ± 0.30 | 2.26 ± 0.42 | 2.00 ± 0.32 | 1.82 ± 0.18 | 0.95 | 497 | 7.6 | 3.9 | 7.6 | 3.9 | about 7 fold | 9.57 | 1.08 | 8.3 | 0.95 | 3.9 | Cc1cc(-c2ncnn2C)c2cccc(OCc3c(Cl)cncc3C(C)NC(=O)COC(F)F)c2n1 (racemic) [Compound 2, rac-N-(1-(5-chloro-4-((2-methyl-4-(1-methyl-1H-1,2,4-triazol-5-yl)quinolin-8-yloxy)methyl)pyridin-3-yl)ethyl)-2-(difluoromethoxy)acetamide] | effect on serotonin-induced contraction (5-HT2A receptor): failed to modify; effect on U-46619-induced contraction (prostanoid TP receptor): failed to modify; antagonist concentration that significantly reduced the c-Fos response to BK (human myc-B2 receptor; 60 min): 100 nM; effect on BK-induced c-Fos accumulation (human myc-B2 receptor; co-treatment between 10 nM and 1 μM): inhibited this response in a concentration-dependent manner; concentration with clear efficacy in inhibiting BK-induced endocytosis [6]: ≥ 100 nM; fold lower intrinsic clearance compared with Compound 3 (so in the source) (microsomal stability; rat microsomal stability assay): 18 fold; fold lower potency compared with Compound 3 (B2 receptor [3]; B2 receptor): 4.0 fold; Papp B→A at 60 min, 10 µM [4]: 29.9 ×10⁻⁶ cm/s; efflux ratio at 60 min, 10 µM [4]: 7.7
4 | – | – | – | – | – | – | – | – | – | – | – | – | – | – | – | – | – | – | – | – | N=C(N)NCCC[C@H](NC(=O)[C@H](Cc1ccccc1)NC(=O)[C@@H]1CCCN1C(=O)[C@H](CO)NC(=O)[C@H](Cc1ccccc1)NC(=O)CNC(=O)[C@@H]1CCCN1C(=O)[C@@H]1CCCN1C(=O)[C@@H](N)CCCNC(=N)N)C(=O)O [BK] (H-RPPGFSPFR-OH) | average agonist EC80, Ca^2+ mobilization [7]: 0.539 ± 0.16 nM
